From US6413983B1, “Benzopyranyl heterocycle derivatives, process for preparation thereof, and pharmaceutical compositions containing them” (Dongbu Hannong Chemical Co. Ltd., priority 2000, dated 2002)

What was measured:
in vivo = conditions: SD, rat, po, 1 g/kg
Procedure: In this test six-week old SPF SD rats were used with two rats assigned to each group. […] The dosing volume was 10 ml/kg. […] All survivors at the end of the observation period underwent laparotomy under ether anesthesia and the blood samples were taken from the abdominal aorta for hematological tests and biochemical analysis. After sacrificing the animals, autopsy was performed for macroscopic observation of the organs and tissues. Tissue samples of vital organs from macroscopic legion were removed and fixed in 10% neutral buffered formalin solution, then processed by standard procedures for histopathology and examined under light microscope.

isolated rat hearts = test: Cardioprotective activity in isolated ischemic heart models of rats (Langendorff, global ischemia/reperfusion); conditions: 10 μM
Procedure: Male Sprague-Dawley rats weighing 300-450 g were anesthetized with sodium pentobarbital (100 mg/kg, i.p.). The tail vein was injected with heparin (1,000 U/kg) and then the trachea was intubated. […] A latex balloon filled with solvent (ethanol: water=1:1 (v/v)) and attached to a metal cannula was placed in the left ventricle through pulmonary vein and connected to a Isotec pressure transducer (H.S.E., Germany) for measurement of left ventricular pressure (LVP). […] Then, baseline contractile function, heart rate (HR), and coronary flow (CF) (extracorporeal electromagnetic flow probe, Narco Bio-System, U.S.A.) were measured. Cardiac contractile function was calculated by subtracting LVEDP from LV peak systolic pressure (LVSP), yielding developed pressure (LVDP). Double product (DP), another important parameter for assessing cardiac performance, was calculated by multiplying HR by LVDP. Throughout the experiment, all these parameters were measured, and calculated before and 10 min after pretreatment with each compound and 30 min after the onset of reperfusion with buffer. Data on reperfusion DP were further expressed as the percentage to pretreatment DP.
We then rendered the hearts globally ischemic by completely shutting off the perfusate for 30 min. Severity of ischemia was determined as the time to contracture (TTC, min) during global ischemia in which the first 5 mmHg increase in EDP was observed. Then, the hearts were reperfused and, 30 min later, contractile function (LVDP, DP) and cumulative reperfusion lactate dehydrogenase (LDH) release were measured. LDH was measured as a sensitive index for loss of cell viability with a kit supplied by Boerhinger Mannheim based on the technique of Wroblewski and LaDue [F. Wroblewski and JS.

[1] = tested on: isolated rat aorta constricted with methoxamine; test: Vasodilation effects on isolated aorta of rats (methoxamine-constricted rings); conditions: isolated rat aorta constricted with methoxamine (3 μM); 50% relaxation
Text: Male Sprague-Dawly rats (350-450 g, obtained from the Experimental Animal Team of the Korea Research Institute of Chemical Technology) were knocked unconscious by hitting the occipital region, sacrificed by cervical dislocation, and underwent thoracotomy. After being quickly removed, the thoracic aorta was deprived of the adipose tissue and cut into aortic rings of 3 mm width. The aorta was lightly rubbed with cotton club soaked in a modified Krebs Henseleit buffer (Physiological Salt Solution, PSS) to remove the inner epithelial layer therefrom.
Thereafter, 3×10^−6 M methoxamine was applied to induce an intensive constriction in the vascular smooth muscle. When the vasoconstriction induced by the methoxamine was reached and maintained to a maximum, test compounds and controls were cumulatively added to the organ baths in concentrations of 1, 3, 10 and 30 μM so as to examine the vasodilation effect.
The change rate of constriction by the addition of the drugs compared to the maximal constriction induced by methoxamine was calculated to plot a concentration-relaxation response curve.

[2] = tested on: ischemic myocardium damage model of anesthetized rats; test: Cardioprotective activity in ischemic heart models of rats (LAD occlusion/reperfusion, anesthetized rats); format: in vivo, rat; conditions: rat in vivo, 0.3 mg/kg i.v.
Procedure: After trachetomy, the rats were rendered to respire artificially at a rate of 60/min with a stroke volume of 10 ml/kg. Cannulars were inserted into the fermoral vein and the fermoral artery and used for drug administration and blood pressure measurement, respectively.
In the ischemic myocardial injury models, the body temperature has an important influence on the results. To avoid the change in the body temperature, a body temperature measuring probe was inserted into the rectum of each rat and the body temperature was constantly kept at 37° C. with the aid of a homeothermic blanket control unit.
Afterwards, during testing, a continuous measurement was made of the mean arterial blood pressures and heart rates from the rats. For the measurement of the blood pressure, a pressure transducer, such as that manufactured by Grass Ins., MA, U.S.A., identified as Model Statham P23XL, was used.
The heart rate was measured by a tachometer, such as that manufactured by Gould Inc., Ohio, U.S.A., identified as Biotachometer. In addition, all of the changes occurring were continuously recorded through the Gould 2000 chart recorder, manufactured by Gould Inc.
The left coronary artery was occluded according to the Selye H. method as follows. The rats underwent a left thoracotomy operation for partial opening of the chest and the right-side chest was pressurized by the middle finger of the left hand to push the heart out. Immediately after the left anterior descending coronary artery hereinafter referred to as (LAD) was carefully stitched using a suture needle with 5-0 silk ligature, the heart was then repositioned in the thoracic cavity while both ends of the ligature were situated outside. The opposite ligature ends were passed through a PE tube (PE100, 2.5 cm) and allowed to stand loose for 20 min for stabilization. Via the cannula inserted into the femoral vein, vehicles or drugs were administered into the rats which were rendered to stand for 30 min in order to sufficiently elicit the efficacies of the drugs.
Next, the PE tube which had the doubled strands of the ligature passed therethrough was pushed toward the heart and then, set upright by tightly pulling end regions of the ligature with a hemostatic pincette while pressing the coronary artery.
After the reocclusion of the coronary artery in accordance with the above procedure, the rats were administered with 2 ml of a 1% Evans blue through an intravenous route. Subsequently, an excess of pentobarbital was intravenously injected to kill the rats, after which the heat was removed and then, deprived of the right ventricle and both atria. The left ventricle was cut horizontally to the heart apex into 5 or 6 slices which were weighed. From the surface of each slice, images were input with the aid of a Hi-scope into a computer installed with an image analyzing program (Image Pro Plus). From the images input into the computer, the area of the normal blood stream tissue region which appeared blue in a computer monitor and the area which appeared colorless were measured. The percentage of the colorless area to the total area of each slice was calculated and multiplied by the weight of each slice to determine the area at risk (AAR) of each slice. The AAR obtained from each slice was summed for all slices and the total AAR was divided by the total weight of the left ventricle to yield % AAR, as shown in the following mathematical formula 1:
AAR(%)=(summed AAR for all slices)/(total weight of left ventricle)×100 [Mathematical Formula 1]
During this fixation, 2,3,5-triphenyltetrazolium chloride was reduced into formazan dye by the myocardial dehydrogenase and its cofactor NADH, so that the normal regions of the tissue were colored brick-red. In contrast, the infarct zones of the tissue were deficient in the dehydrogenase and its cofactor, so that no reduction occurred on the 2,3,5-triphenyltetrazolium, allowing the color to remain unchanged.

rat brain homogenate = test: Inhibitory activity against iron-induced lipid peroxidation (MDA quantification); format: biochemical; conditions: 100 μM compound, 400 μM FeCl2, 37° C., 30 min, MDA reduction rate vs control
Procedure: The rat brain was homogenized in a Krebs buffer (15 mM HEPES, 10 mM glucose, 140 mM NaCl, 3.6 mM KCl, 1.5 mM CaCl2, 1.4 mM KH2PO4, 0.7 mM MgCl2, pH 7.4) and the supernatant separated by centrifugation at 12,000 rpm for 10 min was used for further experiments. FeCl2 was added to a final concentration of 400 μM in the brain homogenate which was then allowed to stand at 37° C. for 30 min for the facilitation of oxidation. Each of the test compounds was added at a concentration of 100 μM and vehicle was used as a control.
Iron facilitates the oxidation of the brain homogenate to produce malondialdehyde (MDA), a lipid peroxidation product. Thus, the lipid peroxidation was determined by MDA quantification. The inhibitory effect of the test compounds against the lipid peroxidation was evaluated by calculating MDA reduction rate of the test compounds compared with that of the control group.
Typically, the MDA quantification is achieved by reacting samples with 2-thiobarbituric acid (TBA) and measuring the absorbance at 530 nm. However, this method is unsuitable to treat samples on a large scale because of a boiling step. Thus, in this experiment, N-methyl-2-phenylindole was used instead of TBA. […] Bioxytech^R LPO-586 Kit was used for MDA quantification.

[3] = tested on: cerebral cortical neurons; test: Protective activity for neuronal cells against iron-induced damage (LDH release); format: cell-based, rat; conditions: 30 μM compound, 50 uM FeSO4, 24 hours, LDH reduction rate vs control
Procedure: From the brains of 17-18 day-old rat embryos, cerebral cortical neurons were isolated and then, cultured at 37° C. for 7-9 days in a 5% CO2 incubator. The cortical cell cultures were washed twice with a minimum essential medium (MEM) to reduce the serum concentration to 0.2% and pre-treated for 30 min with 30 μM of each of test compounds. For the experiments, the test compounds were dissolved in DMSO and diluted in a medium. At this time, the final concentration of DMSO was not allowed to exceed 0.2%. For a control group, only vehicle was applied.
After the pre-treatment with test compounds or vehicle, FeSO4 was added to a final concentration of 50 uM, and the cultures were maintained for 24 hours in a CO2 incubator. During incubation, lactate dehydrogenase (LDH) was released into the medium upon neuronal death by the oxidative toxicity of iron. The extent of neuronal damage was assessed by measuring the amount of LDH released into the media. The protective effect of the compounds of interest on neurons was evaluated by calculating the LDH reduction rate of treatment group compared with that of the control group.

For `COC(OC)[C@@]1(C)Oc2ccc([N+](=O)[O-])cc2[C@H](N2c3ccccc3C[C@H]2C(=O)OC(C)C)[C@H]1O` [Example 10, 1-[(2S, 3R, 4S)-3,4-dihydro-2-dimethoxymethyl-3-hydroxy-2-methyl-6-nitro-2H-1-benzopyran-4-yl]-(2S)-2,3-dihydro-1H-indole-2-carboxylic acid isopropyl ester], the LD50 (in vivo) was > 1000 mg/kg.

For `CCOC(=O)[C@H]1Cc2ccccc2N1[C@@H]1c2cc([N+](=O)[O-])ccc2O[C@@](C)(C(OC)OC)[C@H]1O` [Example 30, 1-[(2R, 3S, 4R)-3,4-dihydro-2-dimethoxymethyl-3-hydroxy-2-methyl-6-nitro-2H-1-benzopyran-4-yl]-(2R)-2,3-dihydro-1H-indole-2-carboxylic acid ethyl ester], the “LDH (U/g)” value (isolated rat hearts; cumulative reperfusion LDH release) was 9.2 U/g, the “EDP (MmHg)” value (isolated rat hearts; left ventricular end-diastolic pressure after 30 min reperfusion) was 11.3 MmHg and the “LDVP × HR (%)” value (isolated rat hearts; reperfusion double product as % of pretreatment DP, 30 min global ischemia, 30 min reperfusion) was 64.1%. For the same molecule, the “TTC” value (isolated rat hearts; time to contracture during global ischemia) was 27.1 min, the LD50 (in vivo) was > 1000 mg/kg and the IC50 [1] was > 30 µM. For the same molecule, the “AAR/LV (%)” value ([2]; area at risk per left ventricle) was 33.6% and the “IZ/AAR (%)” value ([2]; myocardial infarction rate to area at risk, 45 min occlusion, 90 min reperfusion) was 38.9%.

In the case of `CCCOC(=O)[C@H]1Cc2ccccc2N1[C@@H]1c2cc([N+](=O)[O-])ccc2O[C@@](C)(C(OC)OC)[C@H]1O` [Example 34, 1[-(2R, 3S, 4R)-3,4-dihydro-2-dimethoxymethyl-3-hydroxy-2-methyl-6-nitro-2H-1-benzopyran-4-yl]-(2R)-2,3-dihydro-1H-indole-2-carboxylic acid n-propyl ester], the LD50 (in vivo) is reported as > 1000 mg/kg.

In the case of `CCOC(=O)[C@H]1Cc2ccccc2N1[C@H]1c2cc(N)ccc2O[C@](C)(C(OC)OC)[C@@H]1O` [Example 42, 1-[(2S, 3R, 4S)-6-amino-3,4-dihydro-2-dimethoxymethyl-3-hydroxy-2-methyl-2H-1-benzopyran-4-yl]-(2R)-2,3-dihydro-1H-indole-2-carboxylic acid ethyl ester], the “% Inhibition” value (rat brain homogenate; listed as EX. 42) is reported as 90% and the “% Protection” value [3] is reported as 100%.

With `CCOC(=O)[C@@H]1Cc2ccccc2N1[C@H]1c2cc(N)ccc2O[C@](C)(C(OC)OC)[C@@H]1O` [Example 43, 1-[(2S, 3R, 4S)-6-amino-3,4-dihydro-2-dimethoxymethyl-3-hydroxy-2-methyl-2H-1-benzopyran-4-yl]-(2S)-2,3-dihydro-1H-indole-2carboxylic acid ethyl ester] the “% Inhibition” value (rat brain homogenate; listed as EX. 43) was 93%, the “% Protection” value [3] was 100% and the “% Protection” value ([3]; listed as EX. 43) was 101%.

For `CCOC(=O)[C@H]1Cc2ccccc2N1[C@@H]1c2cc(N)ccc2O[C@](C)(C(OC)OC)[C@H]1O` [Example 44, 1-[(2S, 3S, 4R)-6-amino-3,4-dihydro-2-dimethoxymethyl-3-hydroxy-2-methyl-2H-1-benzopyran-4-yl]-(2R)-2,3-dihydro-1H-indole-2-carboxylic acid ethyl ester], the “% Inhibition” value (rat brain homogenate; listed as EX. 44) was 90% and the “% Protection” value [3] was 89%.

With `CCOC(=O)[C@@H]1Cc2ccccc2N1[C@@H]1c2cc(N)ccc2O[C@](C)(C(OC)OC)[C@H]1O` [Example 45, 1-[(2S, 3S, 4R)-6-amino-3,4-dihydro-2-dimethoxymethyl-3-hydroxy-2-methyl-2H-1-benzopyran-4-yl]-(2S)-2,3-dihydro-1H-indole-2-carboxylic acid ethyl ester] the “% Inhibition” value (rat brain homogenate) was 81% and the “% Protection” value ([3]; listed as EX. 45) was 96%.

In the case of `CCOC(=O)c1cc2ccccc2n1[C@H]1c2cc(N)ccc2O[C@](C)(C(OC)OC)[C@@H]1O` [Example 52, 1-[(2S, 3R, 4S)-6-amino-3,4-dihydro-2-dimethoxymethyl-3-hydroxy-2-methyl-2H-1-benzopyran-4-yl]-1H-indole-2-carboxylic acid ethyl ester], the “% Inhibition” value (rat brain homogenate; listed as EX. 52) is reported as 95% and the “% Protection” value [3] is reported as 100%.

In the case of `CCOC(=O)c1cc2ccccc2n1[C@@H]1c2cc(N)ccc2O[C@](C)(C(OC)OC)[C@H]1O` [Example 53, 1-[(2S, 3S, 4R)-6-amino-3,4-dihydro-2-dimethoxymethyl-3-hydroxy-2-methyl-2H-1-benzopyran-4-yl]-1H-indole-2-carboxylic acid ethyl ester], the “% Inhibition” value (rat brain homogenate; listed as EX. 53) is reported as 91% and the “% Protection” value ([3]; listed as EX. 53) is reported as 94%.
